The target of the assay is T1, hNET (Homo sapiens, UniProt P23975).
T1 construct: expressed in transfected cells
Briefly: Norepinephrine (NE) uptake assay in MDCK-Net6 cells stably transfected with human hNET. The assay is classed as cell-based.

Where [1] appears, read: test compound 1 μM, [3H]NE uptake, MDCK-Net6 cells, read-out: % Inhibition @ 1 μM (hNET).

Counter-ions that a name gives are not always drawn. Like-named read-outs stand apart in the source and are kept apart here.

T1 sequence (P23975 whole entry): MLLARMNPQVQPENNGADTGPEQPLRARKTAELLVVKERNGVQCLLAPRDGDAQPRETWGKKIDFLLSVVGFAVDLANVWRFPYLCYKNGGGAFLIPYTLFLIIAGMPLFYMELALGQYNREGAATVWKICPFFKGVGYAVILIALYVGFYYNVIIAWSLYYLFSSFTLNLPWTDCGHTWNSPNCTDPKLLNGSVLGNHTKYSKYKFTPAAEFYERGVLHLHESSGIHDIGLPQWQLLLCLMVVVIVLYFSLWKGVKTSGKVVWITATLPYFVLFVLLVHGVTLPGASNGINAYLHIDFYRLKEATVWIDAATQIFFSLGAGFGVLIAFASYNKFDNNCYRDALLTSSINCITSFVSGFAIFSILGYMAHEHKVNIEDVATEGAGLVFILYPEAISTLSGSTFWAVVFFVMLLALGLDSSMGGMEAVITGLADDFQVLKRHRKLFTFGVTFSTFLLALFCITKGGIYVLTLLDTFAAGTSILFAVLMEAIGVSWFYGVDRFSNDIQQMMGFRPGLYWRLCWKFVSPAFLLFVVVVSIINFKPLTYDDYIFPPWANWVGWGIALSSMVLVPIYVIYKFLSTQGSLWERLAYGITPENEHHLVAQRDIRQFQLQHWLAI

With `CCn1c(=O)n([C@@H](c2cccc(F)c2)[C@H](O)CNC)c2c(F)cccc21` [Example 209, 1-Ethyl-4-fluoro-3-[(1S,2R)-2-hydroxy-3-(methylamino)-1-(3-fluorophenyl)-propyl]-1,3-dihydro-2H-benzimidazol-2-one hydrochloride], the inhibition (as a rule, how much of the control response was suppressed) at 1 µM (MDCK-Net6, read-out: % Inhibition @ 1 μM (hNET)) came to 99.3%.

Consider `CNC[C@@H](O)[C@H](c1cccc(F)c1)N1C(=O)C(C)(C)c2ccccc21` [Example 210, 1-[(1S,2R)-1-(3-fluorophenyl)-2-hydroxy-3-(methylamino)propyl]-3,3-dimethyl-1,3-dihydro-2H-indol-2-one hydrochloride], for which the inhibition at 1 µM under setting [1] amounted to 96.3%.

For the molecule `CNC[C@@H](O)[C@H](c1cccc(F)c1)n1cc(-c2cccc(F)c2F)c2ccccc21` [Example 211, (1S,2R)-1-[3-(2,3-difluorophenyl)-1H-indol-1-yl]-1-(3-fluorophenyl)-3-(methylamino)propan-2-ol hydrochloride], the inhibition at 1 µM under setting [1] worked out at 99.8%.

In the case of `CNC[C@@H](O)[C@H](c1cccc(F)c1)n1cc(-c2ccccc2Cl)c2ccccc21` [Example 214, (1S,2R)-1-[3-(2-chlorophenyl)-1H-indol-1-yl]-1-(3-fluorophenyl)-3-(methylamino)propan-2-ol hydrochloride], the inhibition at 1 µM under setting [1] was 99.9%.

These data come from patent US20090093469A1, “Phenylaminopropanol Derivatives and Methods of Their Use” (WYETH, priority 2004, published 2009).
